Here are results for 16 compounds from patent US20150005281A1, “PYRIMIDINE-2,4-DIAMINE DERIVATIVES AS KINASE INHIBITORS” (Cellzome Limited, priority 2011, published 2015).

Molecules are shown by their SMILES.

As usually defined, the IC50 is the concentration needed to halve the response being measured.

What all share (assay type): binding
One assay concerns the target T1, JAK2 (Homo sapiens, UniProt O60674).
T1 construct: endogenous in cells; host or cells: Molt4 (ATCC CRL-1582) and Ramos (ATCC CRL-1596) cells; mixed lysate 1:2
Kind of assay: Kinobeads assay with immunodetection, JAK2. The settings on record: mixed Molt4/Ramos lysate, read-out: Inhibition values (IC50) JAK2. An outline of the steps: (§1)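 Mixed Molt4/Ramos lysate (1:2, 10 mg/mL protein) incubated 3 h in the cold with compound (1:3 series from 5 mM DMSO stock) and immobilized aminopyrido-pyrimidine Kinobeads. Bead-bound JAK1, JAK2, JAK3 and TYK2 eluted and quantified by antibody dot blot (Odyssey), IC50 from dose-response curves.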

The next assay concerns the target T2, JAK3 (Homo sapiens, UniProt P52333).
T2 construct: endogenous in cells; host or cells: Molt4 (ATCC CRL-1582) and Ramos (ATCC CRL-1596) cells; mixed lysate 1:2
T2 sequence (P52333 1-1124): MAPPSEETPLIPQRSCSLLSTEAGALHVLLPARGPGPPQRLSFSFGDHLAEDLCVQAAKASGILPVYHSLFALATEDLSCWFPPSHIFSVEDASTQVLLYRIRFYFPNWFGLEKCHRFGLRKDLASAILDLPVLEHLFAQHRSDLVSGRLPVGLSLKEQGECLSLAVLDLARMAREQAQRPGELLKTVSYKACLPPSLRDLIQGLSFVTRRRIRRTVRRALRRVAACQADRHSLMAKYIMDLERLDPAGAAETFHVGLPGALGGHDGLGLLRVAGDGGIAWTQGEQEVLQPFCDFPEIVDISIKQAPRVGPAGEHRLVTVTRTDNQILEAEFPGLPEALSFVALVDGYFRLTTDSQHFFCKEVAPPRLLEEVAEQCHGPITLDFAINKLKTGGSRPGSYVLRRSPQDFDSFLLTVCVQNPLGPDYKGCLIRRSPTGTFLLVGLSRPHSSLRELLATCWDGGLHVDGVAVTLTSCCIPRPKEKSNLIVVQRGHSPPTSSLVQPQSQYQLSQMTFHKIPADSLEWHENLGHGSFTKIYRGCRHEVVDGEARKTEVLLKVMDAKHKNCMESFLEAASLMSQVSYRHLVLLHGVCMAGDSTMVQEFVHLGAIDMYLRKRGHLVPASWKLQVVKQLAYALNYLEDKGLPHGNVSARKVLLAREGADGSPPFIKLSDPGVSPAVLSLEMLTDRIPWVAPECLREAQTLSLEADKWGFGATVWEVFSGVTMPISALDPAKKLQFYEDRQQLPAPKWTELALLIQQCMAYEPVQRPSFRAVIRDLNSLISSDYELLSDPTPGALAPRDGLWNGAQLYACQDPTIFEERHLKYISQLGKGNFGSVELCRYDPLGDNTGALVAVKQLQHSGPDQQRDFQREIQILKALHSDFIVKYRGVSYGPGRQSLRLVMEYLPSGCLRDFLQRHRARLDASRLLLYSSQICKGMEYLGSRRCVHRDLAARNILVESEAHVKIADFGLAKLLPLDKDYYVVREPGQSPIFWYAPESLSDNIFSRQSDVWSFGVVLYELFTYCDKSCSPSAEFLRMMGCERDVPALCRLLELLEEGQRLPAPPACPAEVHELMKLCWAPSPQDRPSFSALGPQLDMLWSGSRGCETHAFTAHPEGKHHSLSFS
The experiment in a line: Kinobeads assay with immunodetection, JAK3. Conditions: for IC50: Kinobeads assay, mixed Molt4/Ramos lysate, read-out: Inhibition values (IC50) JAK3. In a few lines: as §1

The target in another assay is T3, TYK2 (Homo sapiens, UniProt P29597).
T3 construct: endogenous in cells; host or cells: Molt4 (ATCC CRL-1582) and Ramos (ATCC CRL-1596) cells; mixed lysate 1:2
Kind of assay: Kinobeads assay with immunodetection, TYK2. Conditions: for IC50: Kinobeads assay, mixed Molt4/Ramos lysate, read-out: Inhibition values (IC50) Tyk2. An outline of the steps:
as §1

Another assay concerns the target T4, JAK1 (Homo sapiens, UniProt P23458).
T4 construct: endogenous in cells; host or cells: Molt4 (ATCC CRL-1582) and Ramos (ATCC CRL-1596) cells; mixed lysate 1:2
Kind of assay: Kinobeads assay with immunodetection, JAK1. Conditions: for IC50: Kinobeads assay, mixed Molt4/Ramos lysate, read-out: Inhibition values (IC50) JAK1. An outline of the steps:
as §1

T3 sequence (P29597 whole entry): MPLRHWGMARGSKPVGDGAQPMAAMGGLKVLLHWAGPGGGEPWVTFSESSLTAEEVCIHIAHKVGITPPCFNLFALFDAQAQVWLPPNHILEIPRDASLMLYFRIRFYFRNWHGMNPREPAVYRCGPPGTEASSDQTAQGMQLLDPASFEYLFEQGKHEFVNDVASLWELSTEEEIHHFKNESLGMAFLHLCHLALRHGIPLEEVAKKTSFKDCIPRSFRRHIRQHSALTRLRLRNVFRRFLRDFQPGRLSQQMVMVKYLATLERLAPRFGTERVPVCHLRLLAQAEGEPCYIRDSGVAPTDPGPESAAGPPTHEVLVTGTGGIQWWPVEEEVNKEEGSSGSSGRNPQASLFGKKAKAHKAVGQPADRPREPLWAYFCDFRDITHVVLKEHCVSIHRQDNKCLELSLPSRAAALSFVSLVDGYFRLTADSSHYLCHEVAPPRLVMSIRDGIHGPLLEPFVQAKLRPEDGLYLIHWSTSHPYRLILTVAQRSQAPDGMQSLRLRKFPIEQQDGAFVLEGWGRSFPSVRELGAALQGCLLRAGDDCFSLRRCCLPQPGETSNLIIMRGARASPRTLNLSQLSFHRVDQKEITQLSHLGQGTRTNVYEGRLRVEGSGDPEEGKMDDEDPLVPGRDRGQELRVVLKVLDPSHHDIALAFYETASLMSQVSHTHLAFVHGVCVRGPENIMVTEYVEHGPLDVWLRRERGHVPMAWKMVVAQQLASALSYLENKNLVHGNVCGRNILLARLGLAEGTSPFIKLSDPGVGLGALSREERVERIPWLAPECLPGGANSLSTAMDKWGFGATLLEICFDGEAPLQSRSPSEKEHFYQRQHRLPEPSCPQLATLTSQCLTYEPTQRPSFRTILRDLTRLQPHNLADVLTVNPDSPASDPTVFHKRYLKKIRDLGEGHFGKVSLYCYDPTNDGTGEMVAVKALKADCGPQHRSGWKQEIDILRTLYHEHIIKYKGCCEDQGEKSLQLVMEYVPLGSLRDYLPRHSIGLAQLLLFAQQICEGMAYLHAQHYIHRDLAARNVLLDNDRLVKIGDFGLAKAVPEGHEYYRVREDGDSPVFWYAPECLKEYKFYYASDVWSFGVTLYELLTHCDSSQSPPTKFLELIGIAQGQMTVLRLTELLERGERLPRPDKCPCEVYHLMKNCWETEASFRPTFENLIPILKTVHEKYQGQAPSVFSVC
T4 sequence (P23458 whole entry): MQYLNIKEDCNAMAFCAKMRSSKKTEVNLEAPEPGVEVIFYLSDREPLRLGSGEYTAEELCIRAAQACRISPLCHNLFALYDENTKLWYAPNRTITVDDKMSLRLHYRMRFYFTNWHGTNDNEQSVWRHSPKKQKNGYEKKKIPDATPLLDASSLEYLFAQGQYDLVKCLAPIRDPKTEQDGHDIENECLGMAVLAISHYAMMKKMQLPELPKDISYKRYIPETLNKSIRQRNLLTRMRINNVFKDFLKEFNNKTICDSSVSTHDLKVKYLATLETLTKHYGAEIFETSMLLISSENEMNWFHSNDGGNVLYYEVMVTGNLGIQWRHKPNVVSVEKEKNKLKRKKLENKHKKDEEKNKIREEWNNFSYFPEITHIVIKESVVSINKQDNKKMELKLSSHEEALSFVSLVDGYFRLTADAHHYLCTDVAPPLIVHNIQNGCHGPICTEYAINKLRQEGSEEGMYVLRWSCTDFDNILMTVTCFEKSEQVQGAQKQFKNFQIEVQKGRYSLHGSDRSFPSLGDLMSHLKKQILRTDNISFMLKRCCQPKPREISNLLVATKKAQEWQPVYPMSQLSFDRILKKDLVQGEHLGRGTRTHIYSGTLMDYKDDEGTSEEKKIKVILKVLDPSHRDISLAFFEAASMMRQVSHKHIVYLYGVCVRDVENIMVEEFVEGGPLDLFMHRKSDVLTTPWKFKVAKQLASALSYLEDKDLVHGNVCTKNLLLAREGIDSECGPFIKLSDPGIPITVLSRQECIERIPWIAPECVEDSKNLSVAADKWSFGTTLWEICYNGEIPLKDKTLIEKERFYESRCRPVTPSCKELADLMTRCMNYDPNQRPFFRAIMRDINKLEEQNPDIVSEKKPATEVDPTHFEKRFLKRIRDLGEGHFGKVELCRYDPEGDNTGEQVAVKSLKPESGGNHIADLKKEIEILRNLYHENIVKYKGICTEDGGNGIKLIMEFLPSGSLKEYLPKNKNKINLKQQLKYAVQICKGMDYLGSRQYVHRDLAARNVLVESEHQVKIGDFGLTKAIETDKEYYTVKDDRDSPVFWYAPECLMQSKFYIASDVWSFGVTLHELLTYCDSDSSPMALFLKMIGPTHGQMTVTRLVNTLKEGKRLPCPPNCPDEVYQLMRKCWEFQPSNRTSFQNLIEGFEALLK
T1 sequence (O60674 whole entry): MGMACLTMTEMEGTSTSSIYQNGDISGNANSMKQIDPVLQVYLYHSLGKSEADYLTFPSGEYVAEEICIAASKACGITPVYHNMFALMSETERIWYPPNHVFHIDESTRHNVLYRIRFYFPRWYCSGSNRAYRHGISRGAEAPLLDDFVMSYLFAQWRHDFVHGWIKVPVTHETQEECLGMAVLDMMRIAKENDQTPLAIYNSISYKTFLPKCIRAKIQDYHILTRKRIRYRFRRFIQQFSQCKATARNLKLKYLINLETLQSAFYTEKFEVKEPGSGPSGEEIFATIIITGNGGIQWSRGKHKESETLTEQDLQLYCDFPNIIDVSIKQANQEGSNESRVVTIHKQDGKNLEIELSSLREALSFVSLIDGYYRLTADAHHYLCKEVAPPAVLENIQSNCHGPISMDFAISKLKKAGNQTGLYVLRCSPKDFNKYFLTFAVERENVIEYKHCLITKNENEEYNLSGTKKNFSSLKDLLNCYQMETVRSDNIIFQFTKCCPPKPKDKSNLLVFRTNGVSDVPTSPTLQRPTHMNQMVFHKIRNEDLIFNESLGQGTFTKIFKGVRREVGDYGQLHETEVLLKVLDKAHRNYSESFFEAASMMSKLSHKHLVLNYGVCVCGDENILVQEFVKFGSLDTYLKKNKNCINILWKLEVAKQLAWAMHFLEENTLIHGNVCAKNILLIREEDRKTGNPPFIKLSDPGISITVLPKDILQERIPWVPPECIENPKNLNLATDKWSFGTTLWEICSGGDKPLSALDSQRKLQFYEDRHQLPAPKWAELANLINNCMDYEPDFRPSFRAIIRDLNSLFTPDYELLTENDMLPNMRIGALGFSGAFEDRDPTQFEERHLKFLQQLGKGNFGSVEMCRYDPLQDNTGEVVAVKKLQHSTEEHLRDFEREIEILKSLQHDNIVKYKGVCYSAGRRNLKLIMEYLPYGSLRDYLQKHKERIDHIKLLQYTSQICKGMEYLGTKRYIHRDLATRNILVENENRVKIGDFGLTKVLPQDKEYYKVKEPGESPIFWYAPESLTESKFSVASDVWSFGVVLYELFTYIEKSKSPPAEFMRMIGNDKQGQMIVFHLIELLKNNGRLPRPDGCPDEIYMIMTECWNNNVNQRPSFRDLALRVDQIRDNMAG

`CC(=O)N1CCCC[C@H]1CNc1nc(Nc2cnn(CCO)c2)ncc1Cl` [Example 33, (S)-1-(2-(((5-chloro-2-((1-(2-hydroxyethyl)-1H-pyrazol-4-yl)amino)pyrimidin-4-yl)amino)methyl)piperidin-1-yl)ethanone]: the IC50 at JAK2 is above 10 µM; on JAK3, 0.1 to 1 µM; at TYK2, 1 to 10 µM; at JAK1 it was 1 to 10 µM. On JAK1, the “Selectivity ratio over JAK2, JAK1” value is on record as “JAK1 = 20”.

Turning to `C=CC(=O)N1CCCC[C@H]1CNc1nc(Nc2cnn(C)c2)ncc1Cl` [Example 34, (S)-1-(2-(((5-chloro-2-((1-methyl-1H-pyrazol-4-yl)amino)pyrimidin-4-yl)amino)methyl)piperidin-1-yl)prop-2-en-1-one], the half-inhibitory concentration (IC50) is above 10 µM on JAK2, 1 to 10 µM at JAK3, 1 to 10 µM on TYK2 and 0.1 to 1 µM at JAK1.

In the case of `C=CC(=O)N1CCCC[C@H]1CNc1nc(Nc2cnn(CCO)c2)ncc1Cl` [Example 35, (S)-1-(2-(((5-chloro-2-((1-(2-hydroxyethyl)-1H-pyrazol-4-yl)amino)pyrimidin-4-yl)amino)methyl)piperidin-1-yl)prop-2-en-1-one], the IC50 was above 10 µM at JAK2, 1 to 10 µM on JAK3, 1 to 10 µM on TYK2 and 0.1 to 1 µM on JAK1.

As to `Cn1cc(Nc2ncc(Cl)c(NC[C@@H]3CCCCN3S(C)(=O)=O)n2)cn1` [Example 36, (S)-5-chloro-N^2-(1-methyl-1H-pyrazol-4-yl)-N^4-((1-(methylsulfonyl)piperidin-2-yl)methyl)pyrimidine-2,4-diamine], the IC50 on JAK2 is 1 to 10 µM; on JAK3, 0.1 to 1 µM; at TYK2, 0.1 to 1 µM; on JAK1, below 0.1 µM. In addition, at JAK3, the “Selectivity ratio over JAK2, JAK3” value is “JAK3 = 54”.

Regarding `CS(=O)(=O)N1CCCC[C@H]1CNc1nc(Nc2cnn(CCO)c2)ncc1Cl` [Example 37, (S)-2-(4-((5-chloro-4-(((1-(methylsulfonyl)piperidin-2-yl)methyl)amino)pyrimidin-2-yl)amino)-1H-pyrazol-1-yl)ethanol], the IC50 at JAK2 is 1 to 10 µM; on JAK3 it was below 0.1 µM; on TYK2, 0.1 to 1 µM; on JAK1, below 0.1 µM. Further, the “Selectivity ratio over JAK2, JAK3” value at JAK3 is “JAK3 = 64”.

Consider `C=CS(=O)(=O)N1CCCC[C@H]1CNc1nc(Nc2cnn(C)c2)ncc1Cl` [Example 38, (S)-5-chloro-N^2-(1-methyl-1H-pyrazol-4-yl)-N^4-((1-(vinylsulfonyl)piperidin-2-yl)methyl)pyrimidine-2,4-diamine], for which the IC50 at JAK2 is 1 to 10 µM; on JAK3, below 0.1 µM; at TYK2 it was 0.1 to 1 µM; at JAK1 it was 0.1 to 1 µM. The “Selectivity ratio over JAK2, JAK3” value at JAK3 is “JAK3 = 57”.

In the case of `CC(=O)N1CCCC[C@@H]1CNc1nc(Nc2cnn(C)c2)ncc1Cl` [Example 39, (R)-1-(2-(((5-chloro-2-((1-methyl-1H-pyrazol-4-yl)amino)pyrimidin-4-yl)amino)methyl)piperidin-1-yl)ethanone], the IC50 on JAK2 is 1 to 10 µM; on JAK3, 0.1 to 1 µM; on TYK2 it was below 0.1 µM; on JAK1 it was 0.1 to 1 µM. Moreover, on TYK2, the “Selectivity ratio over JAK2, Tyk2” value was “Tyk2 = 8”.

Turning to `CC(=O)N1CCCC[C@@H]1CNc1nc(Nc2cnn(CCO)c2)ncc1Cl` [Example 40, (R)-1-(2-(((5-chloro-2-((1-(2-hydroxyethyl)-1H-pyrazol-4-yl)amino)pyrimidin-4-yl)amino)methyl)piperidin-1-yl)ethanone], the IC50 on JAK2 was 0.1 to 1 µM; on JAK3 it was below 0.1 µM; at TYK2, below 0.1 µM; on JAK1, 0.1 to 1 µM. Also, at TYK2, the “Selectivity ratio over JAK2, Tyk2” value was “Tyk2 = 10”.

On to `C=CC(=O)N1CCCC[C@@H]1CNc1nc(Nc2cnn(C)c2)ncc1Cl` [Example 41, (R)-1-(2-(((5-chloro-2-((1-methyl-1H-pyrazol-4-yl)amino)pyrimidin-4-yl)amino)methyl)piperidin-1-yl)prop-2-en-1-one], for which the IC50 on JAK2, on JAK3, at TYK2 and on JAK1 was 0.1 to 1 µM each time. Further, on TYK2, the “Selectivity ratio over JAK2, Tyk2” value is on record as “Tyk2 = 6”.

On to `C=CC(=O)N1CCCC[C@@H]1CNc1nc(Nc2cnn(CCO)c2)ncc1Cl` [Example 42, (R)-1-(2-(((5-chloro-2-((1-(2-hydroxyethyl)-1H-pyrazol-4-yl)amino)pyrimidin-4-yl)amino)methyl)piperidin-1-yl)prop-2-en-1-one], for which the IC50 at JAK2 was 0.1 to 1 µM; on JAK3, 0.1 to 1 µM; on TYK2, below 0.1 µM; at JAK1 it was 0.1 to 1 µM. For the same compound, on TYK2, the “Selectivity ratio over JAK2, Tyk2” value is “Tyk2 = 4”.

`Cn1cc(Nc2ncc(Cl)c(NC[C@H]3CCCCN3S(C)(=O)=O)n2)cn1` [Example 43, (R)-5-chloro-N^2-(1-methyl-1H-pyrazol-4-yl)-N^4-((1-(methylsulfonyl)piperidin-2-yl)methyl)pyrimidine-2,4-diamine]: the IC50 at JAK2 was 0.1 to 1 µM; at JAK3, below 0.1 µM; at TYK2, below 0.1 µM; at JAK1 it was 0.1 to 1 µM. Also, on JAK3, the “Selectivity ratio over JAK2, JAK3” value is “Jak3 = 18”.

For `CS(=O)(=O)N1CCCC[C@@H]1CNc1nc(Nc2cnn(CCO)c2)ncc1Cl` [Example 44, (R)-2-(4-((5-chloro-4-(((1-(methylsulfonyl)piperidin-2-yl)methyl)amino)pyrimidin-2-yl)amino)-1H-pyrazol-1-yl)ethanol], the IC50 is 0.1 to 1 µM at JAK2, below 0.1 µM on JAK3, 0.1 to 1 µM at TYK2 and 0.1 to 1 µM at JAK1. On JAK3, the “Selectivity ratio over JAK2, JAK3” value is given as “JAK3 = 20”.

Take `C=CS(=O)(=O)N1CCCC[C@@H]1CNc1nc(Nc2cnn(C)c2)ncc1Cl` [Example 45, (R)-5-chloro-N^2-(1-methyl-1H-pyrazol-4-yl)-N^4-((1-(vinylsulfonyl)piperidin-2-yl)methyl)pyrimidine-2,4-diamine]: the IC50 is 1 to 10 µM on JAK2, below 0.1 µM on JAK3, 0.1 to 1 µM at TYK2 and 0.1 to 1 µM on JAK1. At JAK3, the “Selectivity ratio over JAK2, JAK3” value is on record as “JAK3 = 160”.

`Cn1cc(Nc2ncc(Cl)c(NCC3CCOCC3)n2)cn1` [Example 46, 5-chloro-N^2-(1-methyl-1H-pyrazol-4-yl)-N^4-((tetrahydro-2H-pyran-4-yl)methyl)pyrimidine-2,4-diamine]: the IC50 on JAK2 was in the range of 1 to 10 µM; at JAK3, 0.1 to 1 µM; at TYK2, 0.1 to 1 µM; on JAK1, 0.1 to 1 µM. For the same compound, the “Selectivity ratio over JAK2, JAK1” value on JAK1 was “JAK1 = 6”.

In the case of `Cn1cc(Nc2ncc(Cl)c(NCC3CCCCC3)n2)cn1` [Example 47, 5-chloro-N^4-(cyclohexylmethyl)-N^2-(1-methyl-1H-pyrazol-4-yl)pyrimidine-2,4-diamine], the IC50 at JAK2 lay in the range of 1 to 10 µM; on JAK3, 0.1 to 1 µM; on TYK2 it was 0.1 to 1 µM; at JAK1, 0.1 to 1 µM. For the same compound, the “Selectivity ratio over JAK2, JAK3” value on JAK3 is listed as “JAK3 = 5”.

As to `Cn1cc(Nc2ncc(Cl)c(NC[C@H]3CCCN3CCO)n2)cn1` [Example 48, (R)-2-(2-((5-chloro-2-(1-methyl-1H-pyrazol-4-ylamino)pyrimidin-4-ylamino)methyl)pyrrolidin-1-yl)ethanol], the IC50 was in the range of 1 to 10 µM at JAK2, 0.1 to 1 µM on JAK3, 0.1 to 1 µM on TYK2 and 0.1 to 1 µM at JAK1. Besides, the “Selectivity ratio over JAK2, JAK3” value on JAK3 is given as “JAK3 = 52”.
